{
  "source": "patent US20030083822A2",
  "about": "“SYSTEMS AND METHODS FOR […] INFORMATICS” (PsychoGenics, Inc., priority 2001, published 2003)",
  "test_system": "mice",
  "test": "Transition-matrix analysis of behavior of drug-treated mice, coded by human observers (Figure 13)",
  "assay_type": "in vivo",
  "details": "average matrix of drug treated mice normalized to control (vehicle) matrix; increase",
  "method": "Testing drugs several times and comparing the results can address replication. Significance is illustrated in Figure 13, where exemplary data is shown from an experiment in which mice were treated with one of the indicated drugs ensuing behavior was recorded and later coded by human observers. In the analysis of transition matrices, the average matrix of the drug treated mice was combined with the average matrix of the control mice. The control data was treated as the \"population\" data as it was expected to have very large numbers from mice treated with same vehicle as more and more experiments that require such vehicle are conducted.\nReferring again to Figure 13, the average transition matrix was transformed as a z-score matrix based on the mean and standard error of the control matrix. In doing so, every drug transition (fd,i) subtracted the corresponding control transition (fc,i) and divided by the standard error (sc,i), as in zd,i=((fd,i)-(fc,i))/(sc,i) was obtained. Although this is just one possible way to normalize the data (e.g., student t-scores can also be calculated), it has some intuitive appeal, as the z-scores can now be read as distance from the control in standard-deviation units. Thus, in Figure 13, the first cell of the matrix corresponding to chlordiazepoxide (CDP), can be read as \"CDP increased the number of rear-rear transitions more than 30 fold\". […]",
  "data": [
    {"smiles": "CNC1=Nc2ccc(Cl)cc2C(c2ccccc2)=[N+]([O-])C1", "note": "[CDP, chlordiazepoxide]", "values": [
      {"measurement": "number of rear-rear transitions (first cell of the z-score transition matrix)", "value": "more than 30 fold"}
    ]}
  ]
}
